Experimental data published in patent US20240114772A1, “ORGANIC ELECTROLUMINESCENT DEVICE” (SFC CO., LTD., priority 2021, published 2024).

Test: Solubility evaluation at room temperature in methyl benzoate and ethyl benzoate
Assay type: physicochemical
Conditions: for solubility: room temperature, concentration of 2 wt %
Description: The solubility of each of the compound prepared in the synthesis examples and the comparative compound [BH1] was measured at room temperature in methyl benzoate and ethyl benzoate. The case in which all the components were dissolved at a concentration of 2 wt % was evaluated as O, and the case in which all the components were not dissolved was evaluated as X, and the results are shown in the following Table 1.

Row | Compound | solubility with respect to methyl benzoate [wt %] | solubility (ethyl benzoate) | solubility (methyl benzoate)
1 | c1ccc2c(-c3c4ccccc4c(-c4cccc5ccccc45)c4ccccc34)cccc2c1 [BH1, reference compound] | < 2 |  | 
2 | CC(C)c1cc(-c2c3ccccc3c(-c3cc4ccccc4c4ccccc34)c3ccccc23)cc(C(C)C)c1 [Compound 46] |  | ◯ | ◯
3 | [2H]c1c([2H])c([2H])c(-c2c3ccccc3c(-c3c(CCC)c4ccccc4c4ccccc34)c3ccccc23)c([2H])c1[2H] [Compound 55] |  | ◯ | ◯
